Measurements from ChEMBL document CHEMBL2331411, “Pyrrolopyrimidine inhibitors of DNA gyrase B (GyrB) and topoisomerase IV (ParE). Part I: Structure guided discovery and optimization of dual targeting agents with potent, broad-spectrum enzymatic activity” (Bioorg Med Chem Lett, 2013).
In brackets after ≈: the same amount, converted by molar mass.

Assays:
[1] = Inhibition of Enterococcus faecalis DNA gyrase subunit B using ATP as substrate assessed as release of inorganic phosphate incubated for 10 mins prior to substrate addition measured after 30 mins by spectrophotometric analysis
[2] = Inhibition of Francisella tularensis DNA topoisomerase 4 subunit B using ATP as substrate assessed as release of inorganic phosphate incubated for 10 mins prior to substrate addition measured after 30 mins by spectrophotometric analysis
[3] = Inhibition of Enterococcus faecalis DNA topoisomerase 4 subunit B using ATP as substrate assessed as release of inorganic phosphate incubated for 10 mins prior to substrate addition measured after 30 mins by spectrophotometric analysis
[4] = Inhibition of Escherichia coli DNA topoisomerase 4 subunit B using ATP as substrate assessed as release of inorganic phosphate incubated for 10 mins prior to substrate addition measured after 30 mins by spectrophotometric analysis
[5] = Inhibition of Francisella tularensis DNA gyrase subunit B using ATP as substrate assessed as release of inorganic phosphate incubated for 10 mins prior to substrate addition measured after 30 mins by spectrophotometric analysis
Staphylococcus aureus = test: Antibacterial activity against Staphylococcus aureus assessed as growth inhibition; format: functional
[6] = Inhibition of Acinetobacter baumannii DNA topoisomerase 4 subunit B using ATP as substrate assessed as release of inorganic phosphate incubated for 10 mins prior to substrate addition measured after 30 mins by spectrophotometric analysis

| SMILES | Ki [1] [nM] | Ki [2] [nM] | Ki [3] [nM] | Ki [4] [nM] | Ki [5] [nM] | MIC (Staphylococcus aureus) [µg/mL] | Ki [6] [nM] |
| --- | --- | --- | --- | --- | --- | --- | --- |
| CCc1[nH]c2nc(Oc3cncnc3)nc(N3CC[C@@H](N)C3)c2c1Cl | < 1 | 15 | 84 | 38 | 3 |  |  |
| CCc1[nH]c2nc(Sc3cccnc3)nc(Cl)c2c1Br | 300 | 1200 | 3500 |  | 400 | 2 (≈ 5.41 µM) |  |
| CCc1[nH]c2nc(Sc3cnc4nccnc4c3)nc(N3C[C@H]4CCCN[C@H]4C3)c2c1Cl | 9 | 10 | 29 | 17 | < 1 |  |  |
| CCc1[nH]c2nc(Sc3cccnc3)nc(Cl)c2c1Cl | 400 |  | 3500 |  | 500 | 4 (≈ 12.3 µM) | 2000 |
| CCc1[nH]c2nc(Sc3cnc4nccnc4c3)nc(N3CC(N)C3)c2c1Cl | 4 | 4 | 65 | 39 | 7 |  |  |
| CCc1[nH]c2nc(Sc3ccc4cncnc4c3)nc(N3CC[C@@H](N)C3)c2c1Cl | < 1 | 2 | 7 | 5 |  |  |  |
| CCc1[nH]c2nc(Sc3ccc4c(c3)C(=O)NC4)nc(N3CC[C@@H](N)C3)c2c1Cl | 7 | 2 | 19 | 11 | 9 |  |  |
| CCc1[nH]c2nc(Sc3ccc4cccnc4c3)nc(N3CC[C@@H](N)C3)c2c1Cl | 4 | 27 | 148 | 80 | 10 |  |  |
| CCc1[nH]c2nc(Sc3ccc4c(N5CCC(N)C5)cc(C(=O)O)nc4c3)nc(N3CC[C@@H](N)C3)c2c1Cl (some centres not stated) | < 1 | 6 | 19 | 7 |  |  |  |
| CCc1[nH]c2nc(Sc3cnc4nccnc4c3)nc(N3C[C@H]4CN[C@H]4C3)c2c1Cl | < 1 | 1 | 9 | 2 |  |  |  |
| CCc1[nH]c2nc(Sc3ccc4[nH]cc(C(=O)O)c(=O)c4c3)nc(N3CC[C@@H](N)C3)c2c1Cl | < 1 |  | 6 | < 1 |  |  |  |
| CCc1[nH]c2nc(Sc3cnc4nccnc4c3)nc(N3CCC(N)CC3)c2c1Cl | < 1 | 6 | 69 | 36 | 3 |  |  |
| CCc1[nH]c2nc(Sc3cnc4nccnc4c3)nc(N3CC[C@@H](N)C3)c2c1Cl | 2 | 4 | 23 | 11 | < 1 |  |  |
| CCc1[nH]c2nc(Sc3cnc4cccnc4c3)nc(N3CC[C@@H](N)C3)c2c1Cl | < 1 |  | 2 | < 1 |  |  |  |
| CCc1[nH]c2nc(Sc3cncnc3)nc(N3CC[C@@H](N)C3)c2c1Cl | 4 | 36 | 157 | 127 | 8 |  |  |
| CCc1[nH]c2nc(Sc3ccc4ccc(C(=O)O)nc4c3)nc(N3CC[C@@H](N)C3)c2c1Cl | < 1 | 4 | 4 | 2 |  |  |  |
| CCc1[nH]c2nc(Sc3cnc4ncc(=O)[nH]c4c3)nc(N3CC[C@@H](N)C3)c2c1Cl | < 1 | 6 | 13 | 11 | 1 |  |  |

| SMILES | Ki [1] [nM] | Ki [2] [nM] | Ki [3] [nM] | Ki [4] [nM] | Ki [5] [nM] | MIC (Staphylococcus aureus) [µg/mL] | Ki [6] [nM] |
| --- | --- | --- | --- | --- | --- | --- | --- |
| CCc1[nH]c2nc(Sc3cnc4nccnc4c3)nc(N3C[C@H]4CCN[C@H]4C3)c2c1Cl | 6 | 9 | 19 | 6 | < 1 |  |  |
| CCc1[nH]c2nc(Sc3ccc4ccc[n+]([O-])c4c3)nc(N3CC[C@@H](N)C3)c2c1Cl | < 1 | 3 | 15 | 7 |  |  |  |
| CCc1[nH]c2nc(Sc3cncnc3)nc(N3CC4C(N)C4C3)c2c1Cl (configuration not stated) | 5 | 15 | 79 | 36 | 2 |  |  |
| CCc1[nH]c2nc(Sc3cnc4nccnc4c3)nc(N3CC4C(N)C4C3)c2c1Cl (configuration not stated) | < 1 |  | 4 | < 1 |  |  |  |
| CCc1[nH]c2nc(Sc3cccnc3)nc(OC)c2c1C=O | 200 | 900 | 1200 |  | 800 |  |  |
| CCc1[nH]c2nc(Sc3ccc4cc5c(nc4c3)C(=O)OC5)nc(N3CC[C@@H](N)C3)c2c1Cl | < 1 | 2 | < 1 | < 1 |  |  |  |
| CCc1[nH]c2nc(Sc3cnc4ccc[n+]([O-])c4c3)nc(N3CC[C@@H](N)C3)c2c1Cl | < 1 | 1 | 5 | 5 |  |  |  |
| CCc1[nH]c2nc(Oc3cnc4cccnc4c3)nc(N3CC4C(N)C4C3)c2c1Cl (configuration not stated) | < 1 |  | 3 | < 1 |  |  |  |
| CCc1[nH]c2nc(Sc3cccnc3)nc(Cl)c2c1C=O | 800 | 8700 | 3700 |  | 1200 | 64 (≈ 201 µM) |  |
| CCc1[nH]c2nc(Oc3cncnc3)nc(N3CC4C(N)C4C3)c2c1Cl (configuration not stated) | < 1 | 2 | 10 | 4 |  |  |  |
| CCc1[nH]c2nc(Sc3cnc4[nH][nH]c(=O)c4c3)nc(N3CC[C@@H](N)C3)c2c1Cl | 6 | 4 | 24 | 6 | 5 |  |  |
| CCc1[nH]c2nc(Sc3cccnc3)nc(Cl)c2c1C(C)=O | 2000 | > 20000 | 1000 |  | 6600 | 64 (≈ 192 µM) |  |
| CCc1[nH]c2nc(Sc3ccc4nc[nH]c(=O)c4c3)nc(N3CC[C@@H](N)C3)c2c1Cl | < 1 | 2 | 14 | 4 |  |  |  |
| CCc1cc2c(Cl)nc(Sc3cccnc3)nc2[nH]1 | > 50000 |  |  |  |  | > 64 |  |
| CCc1[nH]c2nc(Sc3cccnc3)nc(Cl)c2c1C(F)F | 1700 | 400 | 1200 |  | 500 | 64 (≈ 188 µM) |  |
| CCc1[nH]c2nc(Sc3ccc4nc(N)n[n+]([O-])c4c3)nc(N3CC[C@@H](N)C3)c2c1Cl | < 1 |  | 7 | 2 |  |  |  |
| CCc1[nH]c2nc(Sc3cnc4cccnc4c3)nc(N3CC4C(N)C4C3)c2c1Cl (configuration not stated) | 1 | 2 | 10 | 1 | < 1 |  |  |
